Source: US10314917B2, “Targeted polymeric inflammation-resolving nanoparticles” (The Brigham and Women's Hospital, Inc., priority 2014, dated 2019)
Where no end group is shown, it is not given here.

Experiments:
MCP-1 and TNFα = MCP-1 and TNFα production in LPS-activated peritoneal macrophages (ELISA); type: cell-based, murine; conditions: equivalent dose of GW3965
Procedure: Experiments were conducted to assess the in vitro anti-inflammatory effects of GW3965-containing NPs and their ability to regulate LXR target gene expression such as ABCA1 and SREBP-1c. LPS-activated peritoneal macrophages were treated with the indicated NPs containing equivalent doses of GW3965. The supernatant was collected for ELISA analysis of MCP-1 and TNFα. The cells were collected for RT-qPCR analysis of MCP-1 and TNFα mRNA as described below.
In the next set of experiments, GW3965-containing NPs were evaluated to see if they are able to exert anti-inflammatory effects on macrophages. Isolated murine peritoneal macrophages were first treated with lipopolysaccharide (LPS) to induce the production of pro-inflammatory factors such as MCP-1 and TNFα. The activated macrophages were then treated with an equivalent dose of GW3965 in either solution or NP form. ELISA assay was performed on the culture supernatant to determine the production of MCP-1 and TNFα.

[1] = system: atherosclerotic lesion area; assay: Atheroprotective effect in plaque-bearing LDLr−/− mice (lesion area, Oil Red O); type: in vivo; conditions: 8 mg/kg GW3965 daily i.v. for 14 days
Procedure: To explore the atheroprotective effects of these NPs, plaque-bearing LDLr−/− mice were randomly divided into five groups and treated with the following regimens with equivalent doses of 8 mg/kg entrapped GW3965 via daily intravenous administration for 14 consecutive days: i) empty PLGA-b-PEG NP without GW3965 (control); ii) GW3965 in solution form; iii) CNP; iv) TNPLyP-1; and v) TNPCREKA. The aim of this study was to determine whether GW3965-containing NPs would result in inhibition of atherosclerosis development and whether peptide conjugation would improve the delivery efficacy of GW3965.

[2] = system: liver macrophage infiltration; conditions: during dietary intervention; P<0.01; cited from earlier work
[3] = system: zymosan-stimulated PMN infiltration; assay: In vivo murine zymosan-induced peritonitis; set-up: species or system C57BL/6J mice; conditions: 100 ng/mouse i.v.; exudates 4 h post zymosan
Procedure: A model of self-limited peritonitis was used to quantitatively assess resolution in vivo to determine whether the developed NPs containing Ac2-26 are anti-inflammatory and/or pro-resolving (Bannenberg 2005; Schwab 2007). Zymosan A was administered to C57BL/6J mice. In parallel, mice were then given vehicle, empty NPs as control, Ac2-26 in NPs, Scrm Ac2-26 in NPs, Ac2-26 native peptides described in detail below. Equal polymer concentration was loaded in both the NPs and Ac2-26 NPs.
1 ml of zymosan A (100 μg/mouse) in 1 ml of sterile saline was administered to female C57BL/6J mice (6-8 wk old, Charles River Laboratories, Wilmington, Mass., USA) to induce peritonitis (Bannenberg et al. J Immunol 174(7):4345-4355 (2005); Norling, et al. (2011) J Immunol 186(10):5543-5547). […]
For baseline PMN number measurements, mice were euthanized at selected time intervals (4, 12, or 24 hours post zymosan stimulation), with an overdose of isofluorane, following which peritoneal exudates were collected by lavaging with Ca^2+/Mg^2+ free phosphate buffered saline (PBS^−/−, 5 ml). Leukocytes were counted with a hemocytometer.
Peritoneal exudates were harvested 4 h post zymosan initiation, and living cells were quantified using trypan blue exclusion.
Differential cell counts were assessed via flow cytometry using an LSRII flow cytometer. […]

Compound: O=C(O)Cc1cccc(OCCCN(Cc2cccc(C(F)(F)F)c2Cl)CC(c2ccccc2)c2ccccc2)c1 [GW3965, 3-(3-(2-chloro-3-trifluoromethylbenzyl-2,2diphenylethylamino)proproxy), phenylacetic acid]
- production of MCP-1 and TNFα proteins (MCP-1 and TNFα): substantially suppressed
- reduction in lesion area compared with controls [1]: pronounced reduction

Compound: CC/C=C\C[C@H](O)/C=C/C=C\C=C\C=C\[C@@H](O)[C@@H](O)C/C=C\CCC(=O)O [RvD1]
- liver macrophage infiltration (change) [2]: −15%

Compound: Ac2-26 peptide: annexin A1 N-terminal mimetic peptide that acts on the formyl peptide receptor ALX/FPR2 (Ac-AMVSEFLKQAWFIENEEQEYVQTVK; UniProt P04083 2-26, looked up, fragment)
- blockade of zymosan-stimulated PMN infiltration [3]: approximately 30%
